Results: paper PMC6650409, “Modeling the binding of diverse ligands within the Ah receptor ligand binding domain” (Scientific Reports, 2019)
Residue numbers refer to the chain shown, from its start.

Tests used:
H331A mutant AhR = target: T1, H331A mutant AhR (Mus musculus, UniProt P30561, H331A); experiment: [3H]TCDD competitive ligand binding, H331A mutant AhR
T1 construct: made in house; host or cells: in vitro, Promega TNT Quick rabbit reticulocyte lysate
T1 sequence (P30561 10-848 H331A): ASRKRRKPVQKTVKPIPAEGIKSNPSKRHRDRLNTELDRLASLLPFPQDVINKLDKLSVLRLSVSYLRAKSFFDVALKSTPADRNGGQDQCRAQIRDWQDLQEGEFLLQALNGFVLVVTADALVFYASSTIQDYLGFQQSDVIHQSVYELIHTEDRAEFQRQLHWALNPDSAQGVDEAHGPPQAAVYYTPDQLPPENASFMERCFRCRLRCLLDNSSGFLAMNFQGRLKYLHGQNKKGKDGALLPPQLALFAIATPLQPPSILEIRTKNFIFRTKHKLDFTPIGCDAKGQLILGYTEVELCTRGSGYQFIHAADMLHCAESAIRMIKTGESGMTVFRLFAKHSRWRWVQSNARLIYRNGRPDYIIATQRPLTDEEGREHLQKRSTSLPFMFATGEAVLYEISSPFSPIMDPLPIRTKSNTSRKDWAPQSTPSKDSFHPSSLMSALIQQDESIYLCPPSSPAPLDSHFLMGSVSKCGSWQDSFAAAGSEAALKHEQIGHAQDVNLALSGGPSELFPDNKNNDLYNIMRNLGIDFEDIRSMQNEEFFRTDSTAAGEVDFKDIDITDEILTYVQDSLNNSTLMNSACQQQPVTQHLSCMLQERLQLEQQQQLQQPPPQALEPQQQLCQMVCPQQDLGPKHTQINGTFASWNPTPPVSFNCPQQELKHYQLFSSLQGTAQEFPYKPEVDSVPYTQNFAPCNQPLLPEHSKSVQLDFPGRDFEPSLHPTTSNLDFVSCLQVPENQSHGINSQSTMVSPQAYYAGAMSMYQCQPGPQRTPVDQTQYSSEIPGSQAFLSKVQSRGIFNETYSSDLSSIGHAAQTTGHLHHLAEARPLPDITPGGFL
Protocol: (§1) The mouse AhR (mAhR) and ARNT (mARNT) expression plasmids, mβAhR/pcDNA3 and mβArnt/pcDNA3, have been previously described. Point mutations of mβAhR/pcDNA3 were carried out using the QuikChange Lightning Mutagenesis Kit (Agilent Technologies) and all constructs were verified by sequencing.
(§2) [^3H]TCDD specific binding to wild-type or mutant mAhRs synthesized in vitro using the Promega TNT Quick coupled transcription/translation rabbit reticulocyte lysate kit (Madison, WI) was carried out as previously described. [^3H]TCDD specific binding was determined by subtracting the amount of [^3H]TCDD bound to unprogrammed lysate (nonspecific binding) from the total amount of [^3H]TCDD binding to lysate containing in vitro expressed AhR. The amount of [^3H]TCDD specific binding remaining in the presence of the indicated competitor chemical was expressed as a percent of the total [^3H]TCDD specific binding. The relative binding affinity (IC50) of each chemical was determined from concentration-dependent competitive inhibition curves obtained using [^3H]TCDD and increasing concentrations of each test chemical and the mean IC50 value was determined using three-parameter non-linear regression.

S359A mutant AhR = target: T2, S359A mutant AhR (Mus musculus, UniProt P30561, S359A); experiment: [3H]TCDD competitive ligand binding, S359A mutant AhR; conditions: for IC50: Table S6, AhR mutant S359A
T2 construct: made in house; host or cells: in vitro, Promega TNT Quick rabbit reticulocyte lysate
T2 sequence (P30561 10-848 S359A): T1 sequence (P30561 10-848 H331A) with A322H, S350A
Protocol: as §1, §2

[1] = tested on: zebrafish AhR1a (zfAhR1a); conditions: cited from earlier work

Structure (SMILES): Cc1ccc2cc3c(ccc4ccccc43)c3c2c1CC3 [3MC, 3-methylcholanthrene]
- change of relative binding affinity versus wild-type AhR (H331A mutant AhR; H331A mutation, in words): dramatically increased
- IC50 (H331A mutant AhR; Table S6, AhR mutant H331A): 0.141 nM

Structure (SMILES): O=c1cc(-c2ccccc2)oc2ccc3ccccc3c12 [BNF]
- IC50 (S359A mutant AhR): 47.1 nM

Structure (SMILES): O=Cc1c2[nH]c3ccccc3c2cc2[nH]c3ccccc3c12 [FICZ, 6-formylindolo[3,2-b]carbazole]
- change of relative binding affinity versus wild-type AhR (S359A mutant AhR; S359A substitution, in words): decreased binding
- IC50 (S359A mutant AhR): 4.1 nM

Structure (SMILES): Clc1cc2c(cc1Cl)Oc1cc(Cl)c(Cl)cc1O2 [TCDD, 2,3,7,8-tetrachlorodibenzo-p-dioxin]
- ligand binding to zfAhR1a [1]: unable to bind
